Data taken from PubChem BioAssay AID330 (DTP/NCI, 2004).
Values joined by “and” are separate entries in the source; they are usually repeats but may differ in a detail not shown here. Equal entries are not always repeated. Inconclusive results and toxic doses are left out. The calls were made as follows: active = survival T/C of 150% or more; inactive = T/C below 125% in these data.

Tested on: P388 leukemia ip, CD2F1 mice, survival T/C
Test: NCI In Vivo Anticancer Drug Screen. Data for tumor model P388 Leukemia (intraperitoneal) in CD2F1 (CDF1) mice
Details: endpoint: median survival time, higher = longer survival
In short: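 Mice carrying the transplanted tumor received test compound or vehicle. Survival was recorded in each group, and the value is the treated-group measurement divided by that of the vehicle-treated control group.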

[1] = dose: 12.5 mg/kg/injection, schedule: Q01DX009 (ip), vehicle: saline with Tween-80
[2] = dose: 6.25 mg/kg/injection, schedule: Q01DX009 (ip), vehicle: saline
[3] = dose: 12.5 mg/kg/injection, schedule: Q01DX009 (ip), vehicle: Klucel (hydroxypropylcellulose) (HPC)
[4] = dose: 25.0 mg/kg/injection, schedule: Q01DX009 (ip), vehicle: Klucel (hydroxypropylcellulose) (HPC)
[5] = dose: 50.0 mg/kg/injection, schedule: Q01DX009 (ip), vehicle: Klucel (hydroxypropylcellulose) (HPC)
[6] = dose: 50.0 mg/kg/injection, schedule: Q01DX009 (ip), vehicle: saline
[7] = dose: 100.0 mg/kg/injection, schedule: Q01DX009 (ip), vehicle: Klucel (hydroxypropylcellulose) (HPC)
[8] = dose: 100.0 mg/kg/injection, schedule: Q01DX009 (ip), vehicle: saline
[9] = dose: 200.0 mg/kg/injection, schedule: Q01DX009 (ip), vehicle: Klucel (hydroxypropylcellulose) (HPC)
[10] = dose: 50.0 mg/kg/injection, schedule: Q01DX009 (ip), vehicle: suspension in saline
[11] = dose: 200.0 mg/kg/injection, schedule: Q01DX009 (ip), vehicle: suspension in saline

Measured: T/C

CCC(=O)NCC(=O)O
inactive: dose: 3.13 mg/kg/injection, schedule: Q01DX009 (ip), vehicle: saline with Tween-80 100 % of control | dose: 6.25 mg/kg/injection, schedule: Q01DX009 (ip), vehicle: saline with Tween-80 104 % of control and 86 % of control | dose: 6.25 mg/kg/injection, schedule: Q04DX003 (ip), vehicle: saline with Tween-80 110 % of control | [1] 109 % of control | dose: 12.5 mg/kg/injection, schedule: Q04DX003 (ip), vehicle: saline with Tween-80 100 % of control | dose: 25.0 mg/kg/injection, schedule: Q04DX003 (ip), vehicle: saline with Tween-80 100 % of control

Cc1cc(O)c2c3c(c(=O)oc2c1)CP(=O)(c1ccccc1)CC3 (stereo unspecified)
inactive: dose: 100.0 mg/kg/injection, schedule: Q01DX001 (ip), vehicle: saline with Tween-80 94 % of control | dose: 200.0 mg/kg/injection, schedule: Q01DX001 (ip), vehicle: saline with Tween-80 91 % of control | dose: 400.0 mg/kg/injection, schedule: Q01DX001 (ip), vehicle: saline with Tween-80 91 % of control

CS(=O)(=O)Oc1ccc[nH]c1=O
inactive: [2] 110 % of control | [3] 93 % of control | dose: 12.5 mg/kg/injection, schedule: Q01DX009 (ip), vehicle: saline 121 % of control | [4] 103 % of control | dose: 25.0 mg/kg/injection, schedule: Q01DX009 (ip), vehicle: saline 115 % of control | [5] 104 % of control | [6] 118 % of control | [7] 97 % of control | [8] 109 % of control | [9] 98 % of control | dose: 400.0 mg/kg/injection, schedule: Q01DX009 (ip), vehicle: Klucel (hydroxypropylcellulose) (HPC) 97 % of control

COc1ccc(C(=O)/C=C/c2c[nH]c3ccccc23)c(O)c1
inactive: dose: 15.0 mg/kg/injection, schedule: Q01DX005 (ip), vehicle: saline with Tween-80 96 % of control | dose: 30.0 mg/kg/injection, schedule: Q01DX005 (ip), vehicle: saline with Tween-80 96 % of control | dose: 60.0 mg/kg/injection, schedule: Q01DX005 (ip), vehicle: saline with Tween-80 96 % of control | dose: 120.0 mg/kg/injection, schedule: Q01DX005 (ip), vehicle: saline with Tween-80 92 % of control | dose: 240.0 mg/kg/injection, schedule: Q01DX005 (ip), vehicle: saline with Tween-80 96 % of control

C=CCc1c2[n+](cc3c(OC)c(OC)ccc13)CCc1cc3c(cc1-2)OCO3
inactive: dose: 0.4 mg/kg/injection, schedule: Q01DX005 (ip), vehicle: saline 107 % of control and 92 % of control | dose: 0.8 mg/kg/injection, schedule: Q01DX005 (ip), vehicle: saline 99 % of control and 111 % of control | dose: 1.6 mg/kg/injection, schedule: Q01DX005 (ip), vehicle: saline 100 % of control and 103 % of control

O=C(NCCCl)NCCCl
inactive: dose: 10.0 mg/kg/injection, schedule: Q01DX009 (ip), vehicle: saline 105 % of control and 108 % of control | dose: 20.0 mg/kg/injection, schedule: Q01DX009 (ip), vehicle: saline 101 % of control and 102 % of control | dose: 40.0 mg/kg/injection, schedule: Q01DX009 (ip), vehicle: saline 104 % of control and 108 % of control | dose: 80.0 mg/kg/injection, schedule: Q01DX009 (ip), vehicle: saline 102 % of control and 109 % of control | dose: 160.0 mg/kg/injection, schedule: Q01DX009 (ip), vehicle: saline 101 % of control and 104 % of control | dose: 320.0 mg/kg/injection, schedule: Q01DX009 (ip), vehicle: saline 102 % of control and 106 % of control

O=C1CC(=O)C(Br)=C1Br
inactive: dose: 0.37 mg/kg/injection, schedule: Q01DX009 (ip), vehicle: saline 109 % of control | dose: 0.75 mg/kg/injection, schedule: Q01DX009 (ip), vehicle: saline 100 % of control | dose: 0.75 mg/kg/injection, schedule: Q04DX003 (ip), vehicle: saline with Tween-80 95 % of control | dose: 1.5 mg/kg/injection, schedule: Q01DX009 (ip), vehicle: saline 100 % of control

CC1(C)C2CCC(O2)C(C)(C)C2CCC(O2)C(C)(C)C2CCC(O2)C(C)(C)C2CCC1O2
inactive: dose: 50.0 mg/kg/injection, schedule: Q01DX005 (ip), vehicle: saline with Tween-80 102 % of control | dose: 100.0 mg/kg/injection, schedule: Q01DX005 (ip), vehicle: saline with Tween-80 100 % of control | dose: 200.0 mg/kg/injection, schedule: Q01DX005 (ip), vehicle: saline with Tween-80 95 % of control

Cn1c(=O)c2c(ncn2C)n(C)c1=O.[Cl][Pt]([Cl])[Cl]
inactive: dose: 6.25 mg/kg/injection, schedule: Q01DX005 (ip), vehicle: water 116 % of control | dose: 12.5 mg/kg/injection, schedule: Q01DX005 (ip), vehicle: water 116 % of control and 124 % of control | dose: 25.0 mg/kg/injection, schedule: Q01DX005 (ip), vehicle: water 120 % of control | dose: 50.0 mg/kg/injection, schedule: Q01DX005 (ip), vehicle: water 121 % of control | dose: 100.0 mg/kg/injection, schedule: Q01DX005 (ip), vehicle: water 121 % of control

N/C=C1\Cc2ccccc2C1=O
inactive: [10] 95 % of control | dose: 100.0 mg/kg/injection, schedule: Q01DX009 (ip), vehicle: suspension in saline 98 % of control | [11] 104 % of control

c1ccc2c(C[Se][Se]Cc3cccc4ccccc34)cccc2c1
inactive: [7] 90 % of control | [9] 90 % of control

CC(C)c1cccc(C2(C)C(=O)c3ccccc3C2=O)c1
inactive: dose: 100.0 mg/kg/injection, schedule: Q04DX002 (ip), vehicle: saline 99 % of control | dose: 200.0 mg/kg/injection, schedule: Q04DX002 (ip), vehicle: saline 102 % of control | dose: 400.0 mg/kg/injection, schedule: Q04DX002 (ip), vehicle: saline 100 % of control

O=[N+]([O-])c1ccc(/C=C/[P+](c2ccccc2)(c2ccccc2)c2ccccc2)o1
inactive: dose: 0.78 mg/kg/injection, schedule: Q01DX009 (ip), vehicle: saline 103 % of control | dose: 1.56 mg/kg/injection, schedule: Q01DX009 (ip), vehicle: saline 98 % of control | dose: 3.12 mg/kg/injection, schedule: Q01DX009 (ip), vehicle: saline 101 % of control

CN(C)CCNC(=Cc1ccc2ccccc2[n+]1C)NCCN(C)C
inactive: dose: 30.0 mg/kg/injection, schedule: Q01DX005 (ip), vehicle: saline 97 % of control | dose: 60.0 mg/kg/injection, schedule: Q01DX005 (ip), vehicle: saline 101 % of control

Oc1cc(-c2cc3cccc[n+]3o2)cc(O)c1O
inactive: [3] 100 % of control | [4] 99 % of control | [5] 100 % of control

OC1C(O)C(O)C(O)C(O)C1O (stereo unspecified)
inactive: [6] 97 % of control | [8] 96 % of control | dose: 200.0 mg/kg/injection, schedule: Q01DX009 (ip), vehicle: saline 100 % of control | dose: 400.0 mg/kg/injection, schedule: Q01DX009 (ip), vehicle: saline 96 % of control

Cc1ccccc1NC(=O)Cc1ccccc1
inactive: dose: 6.25 mg/kg/injection, schedule: Q01DX009 (ip), vehicle: Klucel (hydroxypropylcellulose) (HPC) 99 % of control | [3] 104 % of control | [4] 94 % of control | [5] 108 % of control | [7] 95 % of control

O=[N+]([O-])c1ccc(CS(=O)(=O)C(Cl)(Cl)Cl)o1
inactive: [2] 108 % of control and 112 % of control and 87 % of control | [10] 86 % of control | [11] 86 % of control

CCCCCCCCCCCCCCCC(=O)N(CCCCN(CCCN(C)C)C(=O)CCCCCCCCCCCCCCC)CCCN(C)C
inactive: [1] 90 % of control | dose: 25.0 mg/kg/injection, schedule: Q01DX009 (ip), vehicle: saline with Tween-80 90 % of control
